According to PMC9448818 (Translational Psychiatry, 2022):
“And” between values parts separate entries of the source, which are not always exact repeats. Equal values may be shown once.

Legend:
[1] = tested on: patients with MDD; test: Toronto side effects scale (TSES), treatment-related side effects; format: in vivo, human; details: Week 16
Source text: The Toronto side effects scale (TSES), administered on Weeks 2, 4, 10, 12, and 16, is a clinical instrument designed to assess the frequency and severity of treatment-related side effects on 5-point Likert scales. The “intensity” score is derived by multiplying the frequency and severity of each side effect. The items assessed can be broadly categorized into the central nervous system (CNS), gastrointestinal (GI), and sexual side effects, as well as weight gain (Table S1)[28]. The primary outcomes for side effects were both dichotomous and continuous: (1) absence or presence of side effects within the four categories on the last visit of Phases I and II and (2) the intensity of each category of side effect across visits during each Phase.
(§1) We assessed the dichotomous measures of response (responder vs. non-responder and remitter vs. non-remitter) and side effects (present vs. absent) for the last timepoint in Phases I and II using logistic regression models with total MADRS score at baseline included as a covariate. Given the availability of biweekly MADRS scores and multiple time points for TSES, continuous measures of response (percentage of symptom improvement) and side effects (intensity of each category of side effects) were assessed using linear mixed-effects models that included interactions of CYP2C19 and CYP2D6 metabolizer groups with timepoint, and recruitment site and individual as random effects variables.
(§2) Using Spearman’s rank correlation, we explored whether measures of unadjusted serum concentrations were associated with symptom improvement and the intensity of side effects during Phase I and II.

[2] = tested on: CYP2D6; details: cited from earlier work
[3] = tested on: patients with MDD; test: MADRS response, remission and symptom improvement (CAN-BIND-1 trial); format: in vivo, human; parameters: key to Estimate for Week, percentage symptom improvement (MADRS), mixed effects model / Estimate for CYP2C19 IM+PM, percentage symptom improvement (MADRS), mixed effects model / Estimate for CYP2C19 RM+UM, percentage symptom improvement (MADRS), mixed effects model / Estimate for CYP2D6 IM+PM, percentage symptom improvement (MADRS), mixed effects model: % points of improvement = (baseline MADRS − MADRS)/baseline; details: for share of the effect of CYP2C19 IM+PM phenotype on symptom improvement mediated by ESCadj serum concentrations: ESC-Only, bootstrap mediation analysis; for cumulative difference in symptom improvement from baseline between CYP2C19 NMs and IMs: at trial end (Week 16)
Description: (§3) The 16-week study protocol consisted of two phases following screening and baseline visits. […] Blood samples were collected on Weeks 2, 10, and 16 to measure medication levels and on Week 4 for pharmacogenetic analyses. The methods used for the quantification of serum levels of drug and metabolite concentrations is described in the Supplementary Methods.
Depressive symptoms were assessed using MADRS every 2 weeks from Week 0 to 16. The primary outcomes for response were: (1) response status (responder versus non-responder) on the last visit of Phases I and II (i.e., Week 8 and 16), and (2) the percentage of symptom improvement across visits during Phases I and II. Remission status (remitter versus non-remitter) at the end of Phases I and II was a secondary outcome for a response. These response outcomes are described in the Supplementary Methods.
as §1, §2
Description of measures of response outcome
Response status signifies the classification of patients as “responder” or “non-responder” if MADRS reduction of ≥50% or <50% from baseline was reached, respectively. For remission status, patients are classified as “remitter” if they achieved a MADRS total score of 10 or less; otherwise, they are classified as “non-remitter”. The percentage of symptom improvement was calculated by subtracting the total MADRS score from the baseline MADRS score and then dividing by the baseline MADRS score for each of the eight time points. These measures of response were selected, since continuous measures, such as percentage symptom improvement, capture more information and have higher power, whereas dichotomous measures, such as response status, has a particular clinical relevance since it is associated with MDD prognosis.
Post-hoc mediation analyses […]
strength of the association between the CYP2C19 or CYP2D6 metabolizer groups (predictor variable) and measures of treatment response or side effect (outcome variable) must be attenuated or rendered non- […]
mediation, respectively.1,2 R package “Mediation”3 and “lavaan”4 was used for continuous and binary variables, respectively, to perform nonparametric bootstrap analyses with 5000 iterations to calculate the estimate of the […]
1Baron RM, Kenny DA. The moderator–mediator variable distinction in social psychological research: Conceptual, strategic, and statistical considerations.
2MacKinnon DP, Lockwood CM, Hoffman JM, West SG, Sheets V. A Comparison of Methods to Test Mediation and Other Intervening Variable Effects.
3Tingley D, Yamamoto T, Hirose K, Keele L, Imai K, Trinh M et al. mediation: Causal Mediation Analysis. […]
project.org/package=mediation (accessed 7 Apr2021).
4Savalei V, Rosseel Y. Computational Options for Standard Errors and Test Statistics with Incomplete Normal and Nonnormal

[4] = Dose-adjusted serum concentrations of drug and metabolite (LC-MS/MS) by CYP2C19 and CYP2D6 metabolizer group; format: in vivo, human; details: for B, ESCadj concentrations in serum, CYP2C19 RM+UM / B, ESCadj concentrations in serum, CYP2D6 IM+PM / B, ESCadj concentrations in serum, CYP2C19 IM+PM: vs NM
Source text: as §3
Serum concentrations were adjusted for dosage (i.e., ng/mL/mg). Sampling time (i.e., hours since the last dose) was entered as a covariate in the regression models to account for when the medication was taken.
The CYP2C19 metabolizer group was not included as a fixed effect covariate, as CYP2C19 is not known to be involved in the metabolism of ARI. […]
Collection of blood samples and quantification of serum drug and metabolite concentrations Participants self-reported the time at which the last dosage of the study medication was taken during the collection of the blood samples. […]
major metabolites, (S-DCT) and (DHA), were performed at the CAMH Clinical Laboratory using LC-MS/MS technology. Briefly, a mix of deuterated internal standards (Cerilliant) was added to 100 µL of each serum specimen, calibrator (Cerilliant) and quality control (MassCheck Antidepressants/Neuroleptics, Level 1 and Level 2). Proteins were precipitated with 300 µL of 9:1 Acetonitrile:Methanol (Sigma-Aldrich) followed by 5 min centrifugation at 9000 rpm. 25 µL of each supernatant was diluted with 200 µL of 0.1% Formic acid (Sigma-Aldrich) and then analyzed on the LC-MS/MS platform consisting of ThermoFisher TSQ Quantum Ultra mass spectrometer coupled with ThermoFisher Surveyor LC pump and HTC PAL autosampler fitted with a Kinetex F5 2.6 µm, 100 x 2.1 mm column (Phenomenex). Six minute gradient elution with 0.1% Formic Acid (mobile phase A) and Acetonitrile (mobile phase B) was applied. Collision energies ranged from 14 to […]
calibration curve ranging from 10 to 1000 ng/mL for each analyte.
Vendor nominal means for quality controls were used to assess the assay accuracy for each of the four analytes […]
precision was considered acceptable assay performance.
Data was analyzed with ThemoFisher XCalibur software.

[5] = vs NM, Phase II, by treatment arm

share of the effect of CYP2C19 IM+PM phenotype on symptom improvement mediated by ESCadj serum concentrations ([3]; Phase II): 45%
share of the effect of CYP2C19 IM+PM phenotype on symptom improvement mediated by ESCadj serum concentrations ([3]; Phase II, listed as ESC-Only): about 45%
higher mean ESCadj concentrations, CYP2C19 IM + PMs compared to NMs ([4]; Week 2 (Phase I)): 42.9%
difference in ESCadj concentrations between CYP2C19 NMs and IM + PMs ([4]; Week 10, ESC + ARI): 39.6%
higher levels of ESCadj in serum, CYP2D6 IM + PMs compared to NMs ([4]; Week 10, ESC-Only): 58.9%
difference in ESCadj concentrations between CYP2C19 NMs and IM + PMs ([4]; Week 16, ESC + ARI): 58.2%
higher levels of ESCadj in serum, CYP2D6 IM + PMs compared to NMs ([4]; Week 16, ESC-Only): 59.2%
ESC levels in CYP2D6 IM+PMs, ESC+ARI compared to ESC-Only ([4]; Week 16, ARI coadministration): lower
ESCadj serum levels in CYP2D6 NMs, ESC + ARI compared to ESC-Only ([4]; Weeks 10 and 16, ARI coadministration): significantly higher
B, ESCadj concentrations in serum, CYP2C19 RM+UM ([4]; Week 2 (Phase I)): -0.05
B, ESCadj concentrations in serum, CYP2D6 IM+PM ([4]; Week 2 (Phase I)): 0.31
B, ESCadj concentrations in serum, CYP2C19 IM+PM ([4]; Week 2 (Phase I), linear regression, dose-adjusted): 0.59
B, ESCadj concentrations in serum, CYP2C19 IM+PM ([4]; Week 10, ESC+ARI arm): 0.69
B, ESCadj concentrations in serum, CYP2C19 RM+UM ([4]; Week 10, ESC+ARI arm): 0.01
B, ESCadj concentrations in serum, CYP2D6 IM+PM ([4]; Week 10, ESC+ARI arm): -0.37
B, ESCadj concentrations in serum, CYP2C19 IM+PM ([4]; Week 10, ESC-Only arm): 0.65
B, ESCadj concentrations in serum, CYP2C19 RM+UM ([4]; Week 10, ESC-Only arm): 0.14
B, ESCadj concentrations in serum, CYP2D6 IM+PM ([4]; Week 10, ESC-Only arm): 0.71 and 0.65
B, ESCadj concentrations in serum, CYP2C19 IM+PM ([4]; Week 16, ESC+ARI arm): 0.77
B, ESCadj concentrations in serum, CYP2C19 RM+UM ([4]; Week 16, ESC+ARI arm): 0.17
B, ESCadj concentrations in serum, CYP2D6 IM+PM ([4]; Week 16, ESC+ARI arm): -0.32
B, ESCadj concentrations in serum, CYP2C19 IM+PM ([4]; Week 16, ESC-Only arm): 0.66
B, ESCadj concentrations in serum, CYP2C19 RM+UM ([4]; Week 16, ESC-Only arm): -0.10
SMILES: CN(C)CCC[C@@]1(c2ccc(F)cc2)OCc2cc(C#N)ccc21 [ESC, Escitalopram]
odds of reporting a CNS side effect, CYP2D6 NMs compared to IM + PMs (factor) [1]: 7.69
odds of reporting decreased sleepiness, CYP2D6 NMs compared to IM + PMs [1]: 25.53
odds of reporting sweating, CYP2D6 NMs compared to IM + PMs ([1]; listed as ESC-Only): 29.21
inhibition of CYP2D6 in vitro [2]: weak inhibitors
Estimate for Week, percentage symptom improvement (MADRS), mixed effects model ([3]; Phase I (Weeks 0–8)): 4.14
Estimate for Week, percentage symptom improvement (MADRS), mixed effects model ([3]; Phase II (Weeks 8–16), by treatment arm): 1.47
cumulative difference in symptom improvement from baseline between CYP2C19 NMs and IMs [3]: 11.5%
cumulative difference in symptom improvement from baseline between CYP2C19 NMs and IMs ([3]; listed as ESC-Only): 11.52%
overall response rate ([3]; end of Phase I (Week 8), MADRS reduction ≥50% from baseline, 83/178): 46.62%
overall response rate ([3]; end of Phase II (Week 16), responders continued ESC, non-responders augmented with ARI, 122/178): 68.54%
Estimate for CYP2C19 IM+PM*Week, percentage symptom improvement (MADRS), mixed effects model ([3]; vs NM, Phase I): -1.48
Estimate for CYP2C19 IM+PM, percentage symptom improvement (MADRS), mixed effects model ([3]; vs NM, Phase I): 3.27
Estimate for CYP2C19 RM+UM*Week, percentage symptom improvement (MADRS), mixed effects model ([3]; vs NM, Phase I): -0.73
Estimate for CYP2C19 RM+UM, percentage symptom improvement (MADRS), mixed effects model ([3]; vs NM, Phase I): 3.74
Estimate for CYP2D6 IM+PM*Week, percentage symptom improvement (MADRS), mixed effects model ([3]; vs NM, Phase I): 0.31
Estimate for CYP2D6 IM+PM, percentage symptom improvement (MADRS), mixed effects model ([3]; vs NM, Phase I): 3.13
Estimate for CYP2C19 IM+PM, percentage symptom improvement (MADRS), mixed effects model [3, 5]: 26.15
Estimate for CYP2C19 RM+UM*Week, percentage symptom improvement (MADRS), mixed effects model [3, 5]: -1.04
Estimate for CYP2C19 RM+UM, percentage symptom improvement (MADRS), mixed effects model [3, 5]: 14.10
Estimate for CYP2D6 IM+PM*Week, percentage symptom improvement (MADRS), mixed effects model [3, 5]: -0.41
Estimate for CYP2D6 IM+PM, percentage symptom improvement (MADRS), mixed effects model [3, 5]: 1.19
Estimate (B) for CYP2C19 IM+PM*Week, average percentage change in MADRS from baseline, mixed effects model ([3]; vs NM, Phase II, by treatment arm, listed as ESC-Only): -2.34
average percentage change in MADRS from baseline lower in CYP2C19 IMs than in NMs ([3]; with every two-week assessment, Phase II, simple effects analysis): 2.54%
